Values after ≈ are worked out from the molar mass of the structure shown. Read-outs that look alike come from different tables or passages of the source.
Legend:
[1] = acidic conditions; Kikuchi et al.; cited from earlier work
[2] = for Water solubility, drug concentration F: FB/AT/βCD / Solubility ratio to FB: FB/AT/βCD: drug/tartaric acid/β-CD multicomponent complex; for Water solubility, drug concentration F: FB/βCD: drug/β-cyclodextrin complex; for Solubility ratio to FB: FB: drug alone; for Solubility ratio to FB: FB/AT: drug with tartaric acid; for Water solubility, drug concentration F: FB/DIMEB: drug/DIMEB complex; for Water solubility, drug concentration F: FB/HPβ-CD: drug/HPβ-CD complex; for Water solubility, drug concentration F: FB/RAMEB: drug/RAMEB complex; for Water solubility, drug concentration F: FB/α-CD: drug/α-CD complex; for Water solubility, drug concentration F: FB/γ-CD: drug/γ-CD complex
physchem = conditions: water
[3] = Effect of some acids on the β-CD solubility; format: physicochemical
Procedure: In a test tube 1000 mg of β-CD in 5 ml of a solution having different concentrations of an acid selected from tartaric, citric, lactic acid, were let to equilibrate for two days at 28*/-2° C. under stirring. The solution was filtered and β-CD concentration was determined by HPLC.

[4] = simultaneous administration of citric acid; Tokumura et al.; cited from earlier work
[5] = 1 mmol terfenadine, 15 ml water, 6 mmol acetic or 4 mmol formic acid
[6] = Table 1, drug tartrate in β-CD solution, room temperature
[7] = drug concentration F: FB, Table 1, basic-type drug alone, room temperature
[8] = drug concentration F: FB/AT, Table 1, drug with tartaric acid, room temperature
[9] = drug concentration F: FB, Table 3, basic-type drug alone

Compound: CCCCCCNC(=O)n1cc(F)c(=O)[nH]c1=O [HCFU, 1-hexylcarbamoyl-5-fluorouracil]
- Chemical stability [1]: chemically stable under acidic conditions

Compound: CC(=O)N1CCN(c2ccc(OCC3COC(Cn4ccnc4)(c4ccc(Cl)cc4Cl)O3)cc2)CC1 (stereo not drawn) [Ketoconazole]
- Water solubility, drug concentration F: FT/βCD [2, 6]: 21000 µg/mL
- Water solubility, drug concentration F: FB/AT/βCD ([2]; Table 1, room temperature): 110000 µg/mL
- Water solubility, drug concentration F: FB/βCD ([2]; Table 1, room temperature): 1240 µg/mL
- solubility (physchem; [7]): 50 µg/mL (≈ 94.1 µM)
- solubility (physchem; [8]): 21000 µg/mL (≈ 39500 µM)

Compound: OC[C@H]1O[C@@H]2O[C@H]3[C@H](O)[C@@H](O)[C@@H](O[C@H]4[C@H](O)[C@@H](O)[C@@H](O[C@H]5[C@H](O)[C@@H](O)[C@@H](O[C@H]6[C@H](O)[C@@H](O)[C@@H](O[C@H]7[C@H](O)[C@@H](O)[C@@H](O[C@H]8[C@H](O)[C@@H](O)[C@@H](O[C@H]1[C@H](O)[C@H]2O)O[C@@H]8CO)O[C@@H]7CO)O[C@@H]6CO)O[C@@H]5CO)O[C@@H]4CO)O[C@@H]3CO [β-CD]
- β-CD concentration ([3]; citric acid 0 mg/ml, 2880 min): 18.3 mg/mL
- β-CD concentration ([3]; citric acid 9.6 mg/ml, 2880 min): 34.1 mg/mL
- β-CD concentration ([3]; citric acid 19.2 mg/ml, 2880 min): 47.9 mg/mL
- β-CD concentration ([3]; citric acid 48.0 mg/ml): 86.1 mg/mL
- β-CD concentration ([3]; citric acid 96.0 mg/ml, 2880 min): 140.1 mg/mL
- β-CD concentration ([3]; citric acid 144.0 mg/ml, 2880 min): 195.7 mg/mL
- Effect of tartaric and citric acid on water solubility of β-CD ([3]; depending on acid concentration): remarkably enhance the water solubility
- β-CD concentration ([3]; lactic acid 0 mg/ml, 2880 min): 18.3 mg/mL
- β-CD concentration ([3]; lactic acid 9.0 mg/ml, 2880 min): 18.8 mg/mL
- β-CD concentration ([3]; lactic acid 22.5 mg/ml, 2880 min): 24.2 mg/mL
- β-CD concentration ([3]; lactic acid 67.5 mg/ml, 2880 min): 35.8 mg/mL
- Effect of lactic acid on water solubility of β-CD ([3]; lactic acid, compared with tartaric and citric acid): lower effect
- Increase of the β-CD solubility in the binary system acid-β-CD ([3]; tartaric 11 and citric 17 mg/ml respectively): about 2 times
- β-CD concentration ([3]; tartaric acid 0 mg/ml, 2880 min): 18.3 mg/mL
- β-CD concentration ([3]; tartaric acid 15.0 mg/ml, 2880 min): 31.4 mg/mL
- β-CD concentration ([3]; tartaric acid 112.5 mg/ml, 2880 min): 83.7 mg/mL

Compound: CCN(CC)CCOc1ccc(C(=C(Cl)c2ccccc2)c2ccccc2)cc1 [Clomifene]
- Solubility ratio to FB: FB ([2]; Table 2): 1 x
- Solubility ratio to FB: FC/βCD ([2]; Table 2, drug citrate in β-CD solution): 500 x
- Water solubility, drug concentration F: FC/βCD ([2]; Table 2, drug citrate in β-CD solution, room temperature): 20000 µg/mL
- Solubility ratio to FB: FB/AC ([2]; Table 2, drug with citric acid): 155 x
- Solubility ratio to FB: FB/AC/βCD ([2]; Table 2, drug/citric acid/β-CD multicomponent complex): 1925 x
- Water solubility, drug concentration F: FB/AC/βCD ([2]; Table 2, drug/citric acid/β-CD multicomponent complex, room temperature): 77000 µg/mL
- Solubility ratio to FB: FB/CD ([2]; Table 2, drug/β-CD complex): 7 x
- Water solubility, drug concentration F: FB/CD ([2]; Table 2, drug/β-CD complex, room temperature): 280 µg/mL
- solubility (physchem; drug concentration F: FB, Table 2, basic-type drug alone, room temperature): 40 µg/mL (≈ 98.5 µM)
- solubility (physchem; drug concentration F: FB/AC, Table 2, drug with citric acid, room temperature): 6200 µg/mL (≈ 15300 µM)

Compound: C(=C\c1ccccc1)/CN1CCN(C(c2ccccc2)c2ccccc2)CC1 [Cinnarizine]
- Difference in bioavailability between cinnarizine + citric acid and its β-cyclodextrin complex + citric acid [4]: no significant difference

Compound: COc1ccc(CCN2CCC(Nc3nc4ccccc4n3Cc3ccc(F)cc3)CC2)cc1 [Astemizole]
- Solubility ratio to FB: FB ([2]; Table 1): 1 x
- Solubility ratio to FB: FT/βCD ([2]; Table 1, drug tartrate in β-CD solution): 1975 x
- Water solubility, drug concentration F: FT/βCD [2, 6]: 7900 µg/mL
- Solubility ratio to FB: FB/AT ([2]; Table 1): 817.5 x
- Solubility ratio to FB: FB/AT/βCD ([2]; Table 1): 22500 x
- Water solubility, drug concentration F: FB/AT/βCD ([2]; Table 1, room temperature): 90000 µg/mL
- Solubility ratio to FB: FB/βCD ([2]; Table 1, drug/β-CD complex): 16 x
- Water solubility, drug concentration F: FB/βCD ([2]; Table 1, room temperature): 65 µg/mL
- Solubility ratio to FB: FB/DIMEB ([2]; Table 3): 303 x
- Solubility ratio to FB: FB/HPβ-CD ([2]; Table 3): 86 x
- Solubility ratio to FB: FB/RAMEB ([2]; Table 3): 275 x
- Solubility ratio to FB: FB/α-CD ([2]; Table 3): 6 x
- Solubility ratio to FB: FB/γ-CD ([2]; Table 3): 6.6 x
- Water solubility, drug concentration F: FB/DIMEB ([2]; Table 3): 1245 µg/mL
- Water solubility, drug concentration F: FB/HPβ-CD ([2]; Table 3): 353 µg/mL
- Water solubility, drug concentration F: FB/RAMEB ([2]; Table 3): 1100 µg/mL
- Water solubility, drug concentration F: FB/α-CD ([2]; Table 3): 24 µg/mL
- Water solubility, drug concentration F: FB/γ-CD ([2]; Table 3): 27 µg/mL
- solubility (physchem; [7]): 4 µg/mL (≈ 8.72 µM)
- solubility (physchem; [9]): 4 µg/mL (≈ 8.72 µM)
- solubility (physchem; [8]): 3270 µg/mL (≈ 7130 µM)

Compound: O=c1[nH]c2ccccc2n1CCCN1CCC(n2c(=O)[nH]c3cc(Cl)ccc32)CC1 [Domperidone]
- Solubility ratio to FB: FB ([2]; Table 1): 1 x
- Solubility ratio to FB: FB/AT ([2]; Table 1): 2000 x
- Solubility ratio to FB: FB/AT/βCD ([2]; Table 1): 5000 x
- Water solubility, drug concentration F: FB/AT/βCD ([2]; Table 1, room temperature): 25000 µg/mL
- Solubility ratio to FB: FB/βCD ([2]; Table 1, drug/β-CD complex): 4.4 x
- Water solubility, drug concentration F: FB/βCD ([2]; Table 1, room temperature): 22 µg/mL
- Solubility ratio to FB: FB/AT/DIMEB ([2]; Table 3): 600 x
- Solubility ratio to FB: FB/AT/HPβ-CD ([2]; Table 3): 10000 x
- Solubility ratio to FB: FB/AT/RAMEB ([2]; Table 3): 6000 x
- Solubility ratio to FB: FB/AT/α-CD ([2]; Table 3): 5000 x
- Solubility ratio to FB: FB/AT/γ-CD ([2]; Table 3): 6000 x
- Solubility ratio to FB: FB/DIMEB ([2]; Table 3): 112 x
- Solubility ratio to FB: FB/HPβ-CD ([2]; Table 3): 32 x
- Solubility ratio to FB: FB/RAMEB ([2]; Table 3): 56 x
- Solubility ratio to FB: FB/α-CD ([2]; Table 3): 6.6 x
- Solubility ratio to FB: FB/γ-CD ([2]; Table 3): 8 x
- Water solubility, drug concentration F: FB/DIMEB ([2]; Table 3): 560 µg/mL
- Water solubility, drug concentration F: FB/HPβ-CD ([2]; Table 3): 160 µg/mL
- Water solubility, drug concentration F: FB/RAMEB ([2]; Table 3): 280 µg/mL
- Water solubility, drug concentration F: FB/AT/DIMEB ([2]; Table 3, drug/tartaric acid/DIMEB multicomponent complex): 30000 µg/mL
- Water solubility, drug concentration F: FB/AT/HPβ-CD ([2]; Table 3, drug/tartaric acid/HPβ-CD multicomponent complex): 50000 µg/mL
- Water solubility, drug concentration F: FB/AT/RAMEB ([2]; Table 3, drug/tartaric acid/RAMEB multicomponent complex): 30000 µg/mL
- Water solubility, drug concentration F: FB/AT/α-CD ([2]; Table 3, drug/tartaric acid/α-CD multicomponent complex): 25000 µg/mL
- Water solubility, drug concentration F: FB/AT/γ-CD ([2]; Table 3, drug/tartaric acid/γ-CD multicomponent complex): 30000 µg/mL
- Water solubility, drug concentration F: FB/α-CD ([2]; Table 3): 33 µg/mL
- Water solubility, drug concentration F: FB/γ-CD ([2]; Table 3): 40 µg/mL
- solubility (physchem; [7]): 5 µg/mL (≈ 11.7 µM)
- solubility (physchem; [9]): 5 µg/mL (≈ 11.7 µM)
- solubility (physchem; [8]): 10000 µg/mL (≈ 23500 µM)

Compound: CC(C)(C)c1ccc(C(O)CCCN2CCC(C(O)(c3ccccc3)c3ccccc3)CC2)cc1 (stereo not drawn) [Terfenadine]
- Dissolution attempt with acid without cyclodextrin [5]: not successful

Source: patent US5855916A, “Highly soluble multicomponent inclusion complexes containing a base type drug, an acid and a cyclodextrin” (priority 1993, dated 1999)
